Calls of active or inactive are those of the source.
Key:
[1] = biological target: T1, Mitogen-activated protein kinase; ERK1/ERK2 (Homo sapiens) (UniProt P27361+P28482); assay: Inhibition of ERK1/2 phosphorylation in human HepG2 cells at 1.56 to 25 uM by Western blot analysis in presence of NAC; assay type: cell-based
[2] = biological target: T2, MAP kinase p38 (Homo sapiens) (UniProt O15264+Q15759+Q16539+P53778); assay: Inhibition of p38 MAPK phosphorylation in human doxorubicin-resistant HepG2 cells expressing p-gp at 1.56 to 25 uM by Western blot analysis in presence of SB203580; assay type: cell-based
HepG2 [3] = assay: Induction of ROS generation in human HepG2 cells at 25 uM after 15 to 30 mins using H2DCFH dye by confocal microscopy in presence of PEG-SOD; assay type: functional, cell-based
[4] = biological target: T2, MAP kinase p38 (Homo sapiens); assay: Inhibition of p38 MAPK phosphorylation in human HepG2 cells at 1.56 to 25 uM by Western blot analysis in presence of NAC; assay type: cell-based
HepG2 [5] = assay: Induction of apoptosis in human doxorubicin-resistant HepG2 cells expressing p-gp assessed as activation of caspase-3/8/9 at 12.5 after 24 hrs by Western blotting in presence of trolox; assay type: functional, cell-based
HepG2 [6] = assay: Induction of ROS generation in human HepG2 cells after 15 to 30 mins using CM-H2DCFDA by flow cytometry; assay type: functional, cell-based
HepG2 [7] = assay: Competitive inhibition of p-glycoprotein in human doxorubicin-resistant HepG2 cells assessed as reduction of doxorubicin efflux after 1 hr by primary Dixon plot analysis; assay type: cell-based
[8] = Cytotoxicity against human PLC/PRF/5 cells after 24 hrs by MTT assay; assay type: functional, cell-based; settings: PLC-PRF-5, 24 h
HepG2 [9] = assay: Increase of SAPK/JNK phosphorylation in human doxorubicin-resistant HepG2 cells expressing p-gp at 1.56 to 25 uM by Western blot analysis in presence of SB203580; assay type: cell-based
HepG2 [10] = assay: Effect on nonphosphorylated ERK1/ERK2 level in human doxorubicin-resistant HepG2 cells expressing p-gp at 25 uM by Western blot analysis; assay type: ADME, cell-based; settings: hepg2, 25 µM
HepG2 [11] = assay: Cytotoxicity against human HepG2 cells after 24 hrs by MTT assay; assay type: functional, cell-based; settings: HepG2, 24 h
[12] = Cytotoxicity against human Hep3B cells after 24 hrs by MTT assay in presence of doxorubicin; assay type: functional, cell-based, Hep 3B2
[13] = biological target: T1, Mitogen-activated protein kinase; ERK1/ERK2 (Homo sapiens); assay: Inhibition of ERK1/2 phosphorylation in human HepG2 cells at 1.56 to 25 uM by Western blot analysis; assay type: cell-based
HepG2 [14] = assay: Induction of apoptosis in human HepG2 cells assessed as activation of caspase-3/8/9 at 12.5 after 24 hrs by Western blotting in presence of trolox; assay type: functional, cell-based
HepG2 [15] = assay: Increase of SAPK/JNK phosphorylation in human HepG2 cells at 1.56 to 25 uM by Western blot analysis in presence of NAC; assay type: cell-based
HepG2 [16] = assay: Induction of apoptosis in human doxorubicin-resistant HepG2 cells expressing p-gp assessed as activation of caspase-3/8/9 at 12.5 after 24 hrs by Western blotting in presence of Z-LEHD-FMK; assay type: functional, cell-based
[17] = Cytotoxicity against human PLC/PRF/5 cells after 24 hrs by MTT assay in presence of doxorubicin; assay type: functional, cell-based; settings: PLC-PRF-5, 24 h
HepG2 [18] = assay: Effect on nonphosphorylated p38 MAPK level in human doxorubicin-resistant HepG2 cells expressing p-gp at 25 uM by Western blot analysis; assay type: ADME, cell-based; settings: hepg2, 25 µM
HepG2 [19] = assay: Induction of apoptosis in human HepG2 cells assessed as activation of caspase-3/8/9 at 12.5 after 24 hrs by Western blotting in presence of Z-IETD-FMK; assay type: functional, cell-based
[20] = biological target: T1, Mitogen-activated protein kinase; ERK1/ERK2 (Homo sapiens); assay: Inhibition of ERK1/2 phosphorylation in human doxorubicin-resistant HepG2 cells expressing p-gp at 1.56 to 25 uM by Western blot analysis in presence of NAC; assay type: cell-based
HepG2 [21] = assay: Induction of apoptosis in human doxorubicin-resistant HepG2 cells expressing p-gp assessed as activation of caspase-3/8/9 after 24 hrs by Western blotting; assay type: functional, cell-based
HepG2 [22] = assay: Induction of ROS generation in human HepG2 cells at 25 uM after 15 to 30 mins using H2DCFH dye by confocal microscopy; assay type: functional, cell-based
HepG2 [23] = assay: Increase of SAPK/JNK phosphorylation in human HepG2 cells at 1.56 to 25 uM by Western blot analysis in presence of SB203580; assay type: cell-based
HepG2 [24] = assay: Induction of apoptosis in human HepG2 cells assessed as activation of caspase-3/8/9 at 12.5 after 24 hrs by Western blotting in presence of Z-VAD-FMK; assay type: functional, cell-based
[25] = biological target: T2, MAP kinase p38 (Homo sapiens); assay: Inhibition of p38 MAPK phosphorylation in human HepG2 cells at 1.56 to 25 uM by Western blot analysis; assay type: cell-based
[26] = Cytotoxicity against human Hep3B cells after 24 hrs by MTT assay; assay type: functional, cell-based, Hep 3B2
HepG2 [27] = assay: Induction of oxidative stress in human doxorubicin-resistant HepG2 cells expressing p-gp assessed as decrease of GSH level per gram of protein at 6.25 to 25 uM after 24 hrs using DTNB by enzymatic kinetic method relative to control; assay type: functional, cell-based
HepG2 [28] = assay: Induction of apoptosis in human doxorubicin-resistant HepG2 cells expressing p-gp assessed as activation of caspase-3/8/9 at 12.5 after 24 hrs by Western blotting in presence of Z-IETD-FMK; assay type: functional, cell-based
HepG2 [29] = assay: Effect on nonphosphorylated p38 MAPK level in human HepG2 cells at 25 uM by Western blot analysis; assay type: ADME, cell-based; settings: hepg2, 25 µM
HepG2 [30] = assay: Cytotoxicity against human HepG2 cells after 24 hrs by MTT assay in presence of doxorubicin; assay type: functional, cell-based; settings: HepG2, 24 h

T1 sequence (P27361 whole entry, looked up): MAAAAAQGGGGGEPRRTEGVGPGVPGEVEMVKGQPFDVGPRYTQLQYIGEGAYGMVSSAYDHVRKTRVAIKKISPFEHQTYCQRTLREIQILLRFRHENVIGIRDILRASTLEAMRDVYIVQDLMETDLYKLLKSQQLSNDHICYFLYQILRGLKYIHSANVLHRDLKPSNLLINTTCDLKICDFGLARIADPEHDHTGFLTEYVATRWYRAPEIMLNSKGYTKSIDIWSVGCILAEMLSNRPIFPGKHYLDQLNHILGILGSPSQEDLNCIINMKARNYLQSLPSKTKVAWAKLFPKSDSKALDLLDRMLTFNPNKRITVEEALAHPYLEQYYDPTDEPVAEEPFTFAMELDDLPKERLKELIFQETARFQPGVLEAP
T1 sequence (P28482 whole entry, looked up): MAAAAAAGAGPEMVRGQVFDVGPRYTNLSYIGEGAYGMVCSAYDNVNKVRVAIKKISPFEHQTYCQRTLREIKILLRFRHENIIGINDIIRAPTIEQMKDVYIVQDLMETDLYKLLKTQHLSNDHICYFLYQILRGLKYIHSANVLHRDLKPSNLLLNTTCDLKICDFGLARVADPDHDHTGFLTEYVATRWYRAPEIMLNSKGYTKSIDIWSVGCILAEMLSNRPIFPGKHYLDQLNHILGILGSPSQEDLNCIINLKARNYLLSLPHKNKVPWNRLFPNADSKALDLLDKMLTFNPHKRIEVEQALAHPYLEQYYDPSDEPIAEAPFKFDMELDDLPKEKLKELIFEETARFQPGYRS

CC(C)C1=Cc2ccc3c(c2C(=O)C1=O)CCCC3(C)C [MILTIRONE]
27.1 µM: EC50 [8]
inactive: inhibition [1] | inhibition [2] | Activity (HepG2 [3]) | inhibition [4] | Activity (HepG2 [5]) | Activity (HepG2 [14]) | inhibition (HepG2 [15]) | Activity (HepG2 [16]) | Activity (HepG2 [19]) | inhibition [20] | Activity (HepG2 [23]) | Activity (HepG2 [24]) | Activity (HepG2 [28])
6.6 µM: EC50 [12]
17.4 µM: EC50 [17]
30.9 µM: EC50 (HepG2 [30])
Non-toxic: Activity (HepG2 [10]) | Activity (HepG2 [18]) | Activity (HepG2 [29])
7.1 µM: EC50 (HepG2 [11])
14.8 µM: EC50 [26]
active: Activity (HepG2 [6]) Dose-dependent effect | inhibition (HepG2 [7]) | Activity (HepG2 [9]) | inhibition [13] | Activity (HepG2 [21]) | Activity (HepG2 [22]) | inhibition [25] | Activity (HepG2 [27])

— ChEMBL document CHEMBL3608289, “Miltirone Is a Dual Inhibitor of P-Glycoprotein and Cell Growth in Doxorubicin-Resistant HepG2 Cells” (J Nat Prod, 2015)
